According to PubChem BioAssay (NCI):
“And” between values parts separate entries of the source, which are not always exact repeats. Identical values can stand only once.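 1) Cells in 96-well plates. 2) Compound, 48 h, 5 concentrations. 3) Linear interpolation between surrounding doses. 4) Unreached endpoint = highest concentration. Abbreviation: GI50, concentration required for 50% inhibition of growth. TGI is the concentration that stops growth completely.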

How the values were obtained:
Assay in all cases: DTP human tumour cell line panel, 48 h
[1] = tested on: EKVX NSCLC
[2] = tested on: HOP-62 NSCLC
[3] = tested on: MALME-3M melanoma
[4] = tested on: OVCAR-3 ovarian
[5] = tested on: OVCAR-5 ovarian
[6] = tested on: RPMI-8226 leukemia
[7] = tested on: SF-539 CNS
[8] = tested on: SK-MEL-28 melanoma
[9] = tested on: SN12C renal
[10] = tested on: T-47D breast

Structure (SMILES)	GI50 [1] [µM]	TGI [1] [µM]	GI50 [2] [µM]	TGI [2]	GI50 [3] [µM]	TGI [3]	GI50 [4] [µM]	TGI [4] [µM]	GI50 [5] [µM]	TGI [5]	GI50 [6] [µM]	TGI [6] [µM]	GI50 [7] [µM]	TGI [7]	GI50 [8] [µM]	TGI [8]	GI50 [9] [µM]	TGI [9]	GI50 [10] [µM]	TGI [10] [µM]
COC1=CC(=O)c2nc(-c3cccc(C)n3)[nH]c2C1=O	34.8	> 100	18.7	35.9 µM	20.8	64.3 µM	22.9	46.4	30.9	> 100 µM	27	> 100	18.8	36.7 µM	31.7	> 100 µM	32.9	> 100 µM	15.8	58.1
CC(=O)CSCc1ccccn1		> 100		> 100 µM		9.99 µM		> 100		> 100 µM		36.8		67.9 µM		> 100 µM		> 100 µM		> 100
NS(=O)(=O)c1ccc(NC2(C(=O)O)CCCC2)cc1		> 100		> 100 µM		> 100 µM		> 100		> 100 µM		> 100		> 100 µM		> 100 µM		> 100 µM		> 100
COc1cc2c(c(OC)c1OC)-c1ccc(OC)c(=O)cc1[C@@H](NC(=O)c1ccccc1)CC2	> 30	> 100	< 0.003	30 µM and > 100 µM	< 0.003	30 µM and 80.1 µM	< 0.003		< 0.003	30 µM and > 94.1 µM		> 80.7	< 0.003	< 0.003 µM and 0.017 µM	< 0.003	30 µM and > 100 µM	< 0.003	30 µM and > 81.5 µM	> 30	> 100
COc1nc2ccccc2cc1-c1nc2c(cnn2-c2ccc(Br)cc2)c(=O)[nH]1	0.0817	> 50	0.0363	7.39 µM	0.519	> 50 µM	0.0171	0.219	0.798	> 50 µM	0.0402	6.79	0.0194	1.63 µM	0.361	> 50 µM	0.0739	> 50 µM	0.0413	> 50
C=C1C(=O)O[C@@H]2/C=C(\C)CC/C=C(/COC(C)=O)C[C@@H](OC(C)=O)[C@@H]12		25.8		72.6 µM		8.85 µM		14.2		34.6 µM		> 41.7		36.3 µM		23.5 µM		24.9 µM		26.6
COC(=O)C1=CNC=C(C(=O)OC)C1C1=CC(=O)C(C)=CC1=O	16.3	30	14.8	28.2 µM	14.1	27.5 µM	5.64	22.1	17.7	31.7 µM	2.9	7.5	14.9	29.6 µM	24.3	> 59.6 µM	13	25.8 µM	17.9	44.6
COc1cc(-c2ccc3c(c2)NC(=O)/C3=C\c2ccc[nH]2)ccc1O	0.144	> 50	0.0563	> 50 µM	2.65	> 50 µM	0.0176	> 50	0.799	> 50 µM	0.0228	> 16.2	0.0156	0.236 µM	2.19	> 50 µM	0.0423	> 50 µM	0.219	> 50
N#CC(NNC(=O)Cc1ccccc1)c1c(O)ccc2ccccc12 (stereo unspecified)		65.6		59.2 µM		30.2 µM		26.5		> 43.5 µM		> 60.1		29 µM		97.7 µM		61.3 µM		60.4
NCC1Nc2ccccc2[C@@H](O)C1O (stereo partly specified)		> 100		> 100 µM		> 100 µM		> 100		> 100 µM		> 100		> 100 µM		> 100 µM		> 100 µM		> 100
CN1C/C=C\CCOc2cccc(c2)-c2ccnc(n2)Nc2cccc(c2)C1	0.0872	0.961	0.0482	0.402 µM	0.107	0.454 µM	0.0419	0.769	0.0369		0.0804	0.318	0.0508	0.227 µM	0.0641	0.451 µM	0.0556	1.45 µM	0.0413	0.334
CN(C)C(=O)c1cc2cnc(Nc3ccc(-c4csc5c(=S)cc(N6CCOCC6)oc45)cc3)nc2n1C1CCCC1	0.792	> 13.7	0.694	> 50 µM	0.778	31.1 µM	0.91	> 50	0.485	> 50 µM	0.252	1.45	0.517	2.03 µM	0.752	> 50 µM	0.33	> 50 µM	0.198	> 50
CCOC(=O)[C@@H](N)CCC(=O)N[C@@H](CSCc1ccccc1)C(=O)N[C@@H](C(=O)OCC)c1ccccc1	25.2	> 73.3	16.6	32.8 µM	19.7	36.2 µM	16.7	30.7	> 100	> 100 µM	17.8	45.1	17.6	33.8 µM	16.7	31.7 µM	18	34.9 µM	14.8	33.8
COc1cc(/C=C/c2cc(/C=C/c3ccc(O)c(OC)c3)n(C(=O)Nc3ccc(F)c(Cl)c3)n2)ccc1O	1.22	6.98	0.409	1.59 µM	1.05	2.48 µM	0.263	0.837	1.82	6.87 µM	0.365	1.73			0.52	3.92 µM			0.634	2.32
Cc1cc(C(=O)Nc2ncc(Cc3cccc(C(F)(F)F)c3)s2)c2ccccc2n1	2.9	> 100	1.46	> 100 µM	3.51	> 100 µM	2.63	> 100			2.41	> 100			0.79	> 100 µM	3.62	> 100 µM	0.181	> 100
CC(C)n1nc(-c2cc3cc(O)ccc3[nH]2)c2c(N)ncnc21			0.393	3.56 µM	0.0269	0.265 µM	0.22	2.75	0.244	8.98 µM	0.0705	1.25	0.309	2.18 µM	0.12	1.67 µM	0.175	6.43 µM	0.0435	0.417
CC(C)(C)c1cc(C(C)(C)C)cc(S(=O)(=O)Nc2cc3ccccc3cc2C(=O)NCCN)c1	1.45	2.88	1.57	3.01 µM	1.54	3.13 µM	1.75	3.21	1.94	4.49 µM			1.77	3.28 µM	1.87	3.64 µM	1.86	3.6 µM	1.7	3.6
c1cc(CNC23CC4CC(CC(C4)C2)C3)cc(C[N+](Cc2cccc(CNC34CC5CC(CC(C5)C3)C4)c2)(Cc2cccc(CNC34CC5CC(CC(C5)C3)C4)c2)Cc2cccc(CNC34CC5CC(CC(C5)C3)C4)c2)c1 (stereo unspecified)			11.1	42.1 µM	3.51	7.77 µM	4.35	11.8	4.09	11.5 µM	5.51	16.7	4.23	10.3 µM	6.94	33.1 µM	5.9	18.5 µM	5.59	28.1
CC(C)(C)c1cc(Br)c(O)c(CN(Cc2cc(C(C)(C)C)cc(Br)c2O)C2CCCCC2)c1		27.9		28.5 µM		24.1 µM		24.2		29.1 µM		27.9				28.9 µM		28 µM		21.4
Clc1ccc(C2=Nn3c(COc4ccccc4Cl)nnc3SC2)c(Cl)c1	23.7	80.8	24.3	65 µM	20.3	70.6 µM	12.9	29.2	35.1	87.1 µM	44.7	> 100			17	53.9 µM			14	51.5
CCOC(=O)c1c(C)n(Cc2ccc(Cl)cc2Cl)c2c1c(CN(C)C)c(O)c1[nH]cnc12	22.5	42.9	12.8	29.5 µM	21.2	42.9 µM	17.3	33.5			7.95	22.1	20.2	36.9 µM	20.9	41 µM	15.1	28.6 µM	3.55	15.2
